In US20050208029A1, “Method of forming pancreatic beta cells from mesenchymal cells” (priority 2002, published 2005):

Test system: KUSA/A1 cells
Assay: Insulin concentration (ELISA) in supernatant of KUSA/A1 cells cultured 12 days with or without bFGF
Assay type: cell-based, mouse
Conditions: 2 h after 25.0 mM glucose
Description: The KUSA/A1 cells obtained in Example 1 were treated with trypsin and transferred to a 6-well dish (product of Falcon) so that the cell density might become as low as possible.
The cells were cultured in serum-free DMEM containing insulin, transferrin, progesterone, putrescine and selenium or in DMEM containing 10% FBS at 33° C. for 12 days using an incubator with a CO2 concentration of 5%.
bFGF (recombinant human basic fibroblast growth factor; product of R&D) was added to each of the serum-free or serum-containing wells to a final concentration of 10 ng/ml. Hereafter, unless otherwise specified, cell culture was carried out under the same conditions while medium exchange was conducted at 2-day intervals.
After 12 days of cultivation, the medium in each well was discarded, the cells in each well were washed repeatedly with three portions of PBS. After washing, 2 ml of PBS was added to each well afresh, and cultivation was performed at 33° C. for 2 hours using an incubator with a CO2 concentration of 5%.
After 2 hours of cultivation, the PBS was discarded, 2 ml of DMEM containing 25.0 mM glucose was added afresh, and cultivation was performed at 33° C. for further 2 hours using an incubator with a CO2 concentration of 5%. […]

## bFGF: recombinant human basic fibroblast growth factor; product of R&D; used as pancreatic β cell forming agent
DMEM containing bFGF (10 ng/ml) and 10% FBS, below assay sensitivity limit
  insulin detected in the supernatant: below 39 pg/mL
serum-free DMEM containing bFGF (10 ng/ml), insulin, transferrin, progesterone, putrescine and selenium
  insulin detected in the supernatant: 223 pg/mL
